Measured values from ChEMBL document CHEMBL3603813, “Quinoline-based antimalarial hybrid compounds” (Bioorg Med Chem, 2015).
pIC50: −log10 of the molar value.

How the values were obtained:
Plasmodium berghei [1] = experiment: Antimalarial activity against Plasmodium berghei infected in mouse assessed as reduction in parasitemia at 44 to 46 mg/kg, po; assay type: functional
Plasmodium falciparum [2] = experiment: Antiplasmodial activity against CQ-resistant Plasmodium falciparum FCR3; assay type: functional, organism-based
Plasmodium berghei [3] = experiment: Antimalarial activity against Plasmodium berghei infected in mouse assessed as inhibition of parasite multiplication at 5 mg/kg/day administered for 4 days measured after 7 days; assay type: functional
Plasmodium falciparum [4] = experiment: Antiplasmodial activity against CQ-resistant Plasmodium falciparum FcB1; assay type: functional
Plasmodium falciparum [5] = experiment: Antiplasmodial activity against CQ-resistant Plasmodium falciparum FcM29; assay type: functional
Plasmodium falciparum [6] = experiment: Antiplasmodial activity against CQ-sensitive Plasmodium falciparum D6; assay type: functional
Plasmodium falciparum [7] = experiment: Antiplasmodial activity against CQ-resistant Plasmodium falciparum Dd2; assay type: functional, organism-based
[8] = Inhibition of beta-hematin formation; assay type: physicochemical

## Clc1ccc2c(NCCN3CCC(NC(c4ccccn4)c4ccccn4)CC3)ccnc2c1
Plasmodium berghei [1]
  inhibition (INH): >99.9%

## CCCS(=O)(=O)N1CCN(c2ccnc3cc(Cl)ccc23)CC1
Plasmodium falciparum [2]
  pIC50: 5.92

## O=C(CS(=O)(=O)N1CCN(c2ccnc3cc(Cl)ccc23)CC1)Nc1ccccc1
Plasmodium falciparum [2]
  pIC50: 5.92

## Clc1ccc2c(Sc3ncnc4[nH]cnc34)ccnc2c1
Plasmodium berghei [3]
  inhibition in vivo at 5 mg/kg/day: 70%

## C[C@@H]1CC[C@H]2[C@@H](C)C(=O)O[C@@H]3O[C@@]4(C)CC[C@@H]1[C@]32OO4 [ARTEMISININ]
Plasmodium falciparum [4]
  Activity: 10 nM
Plasmodium falciparum [5]
  Activity: 18 nM

## CCN(CC)CCCC(C)Nc1ccnc2cc(Cl)ccc12 (configuration not stated) [CHLOROQUINE]
Plasmodium falciparum [4]
  Activity: 145 nM
Plasmodium falciparum [5]
  Activity: 735 nM
Plasmodium falciparum [6]
  Activity: 7 nM
Plasmodium falciparum [7]
  Activity: 102 nM
[8]
  inhibition (INH): 94%

## Clc1ccc2c(NCCCN3CCC(NC(c4ccccn4)c4ccccn4)CC3)ccnc2c1 [DM-1157]
Plasmodium berghei [1]
  inhibition (INH): >99.9%
